Legend:
IFN-α = assay: Production of IFN-α in vivo after oral administration (murine pan-IFN-α ELISA); design: species or system C57BL/6 mice; conditions: mice
Procedure: (§1) Production of IFN-α and Up-Regulation of CXCL10 mRNA In Vivo
(§2) The potential of compounds to induce IFN-α production and CXCL10 mRNA up-regulation in vivo was evaluated after oral administration to C57BL/6 mice. The quantity of IFN-α in systemic circulation was followed over time, using a murine pan-IFN-α ELISA (PBL InterferonSource, ref. 42120). This ELISA recognizes all murine IFN-α subtypes. […] CXCL10 mRNA expression levels were followed by RT-qPCR.
(§3) For each compound and dose tested, 3 female C57BL/6J mice, from 6-10 weeks of age, 20-22 g of body weight were tested. Animals were given compound 1 as a single oral dose of 15.5 mg/kg as a 1.55 mg/mL solution in 20% aqueous hydroxypropyl β-cyclodextrin vehicle using a feeding tube. 0.5, 1, 2, 4 and 7 hours after dosing, systemic blood was drawn from the tail vein into K-EDTA containing tubes. Plasma was separated from blood cells by centrifugation at 1500 g, 10 min, 4° C. and stored at −80° C. prior to ELISA analysis. At each time point, the median and standard deviation over the 3 animals was calculated to evaluate the potency of the compound.

CXCL10 mRNA = assay: Up-regulation of CXCL10 mRNA in vivo after oral administration (RT-qPCR); design: species or system C57BL/6 mice; conditions: mice
Procedure: as §1, §2
as §3, with “Plasma was separated from blood cells by centrifugation at 1500 g, 10 min, 4° C. and stored at −80° C. prior to ELISA analysis.” left out
Blood was also drawn from the tail vein into micronic tubes containing 500 μl of PAXgene solution (PAXgene blood RNA tubes from PreAnalytix). […] The ΔΔCt method (for relative quantification) was used to evaluate regulation of CXCL10 expression by the compound compared to the vehicle control. At each time point, the median and standard deviation over the 3 animals was calculated to evaluate the potency of the compounds.

CCCC[C@@H](CCOC(=O)C(C)C)Nc1nc(NC(=O)C(C)C)ncc1OC [Compound 1]
observed: Induction of endogenous interferon (IFN-α; liver, single oral dose of 15.5 mg/kg (FIG. 1A)) | Induction of endogenous interferon (IFN-α; plasma, single oral dose of 15.5 mg/kg (FIG. 1B)) | upregulation of CXCL10 (CXCL10 mRNA; blood, single oral dose of 15.5 mg/kg (FIG. 2B)) | upregulation of CXCL10 (CXCL10 mRNA; liver, single oral dose of 15.5 mg/kg (FIG. 2A))
